Measured values published in publication PMC5049785, “Characterization of Novel Antimalarial Compound ACT-451840: Preclinical Assessment of Activity and Dose–Efficacy Modeling” (PLoS Medicine, 2016).

What was measured:
Cam3.II^C580Y parasites = assay: microbe, parasite or virus in culture; format: cell-based, P. falciparum
Procedure: (§1) Parasites were cultured at Columbia University Medical Center (New York, USA) as previously described (1). Cam3.II and V1/S parasites, which had been genetically engineered to express K13 wild-type or K13 C580Y were seeded in a 96-well plate at 0.2% parasitemia and 1% hematocrit (2). […] Parasites were then stained with SYBR Green I (Invitrogen) and MitoTracker Deep Red (ThermoFisher Scientific) for 20 minutes at 37 °C (3). Stained parasites were detected using a BD Accuri 6 Flow Cytometer, and analyzed using FlowJo Software. IC50 values were determined by nonlinear regression using GraphPad Prism 6.0. For statistical analyses, Student’s t-tests were performed, and significance was set at P < 0.05.
(§2) Values indicate mean ± SEM, shown in nM. Significance determined by Student's t-test against parental lines.

[1] = tested on: Cam3.II^rev parasites (K13 wild-type); assay: microbe, parasite or virus in culture; format: cell-based, P. falciparum
Procedure: as §1, §2

[2] = tested on: V1/S parasites (K13 wild-type); assay: microbe, parasite or virus in culture; format: cell-based, P. falciparum
Procedure: as §1, §2

V1/S^C580Y parasites = assay: microbe, parasite or virus in culture; format: cell-based, P. falciparum
Procedure: as §1, §2

[3] = tested on: P. falciparum PfNF54^0230/N3; assay: In vivo efficacy, P. falciparum mouse model (GSK)
Procedure: In vivo efficacy against P. falciparum was conducted at GSK according to the standard assay previously described. Female NODscidIL2Rγnull mice were engrafted with human erythrocytes and infected with the isolate P. falciparum PfNF54^0230/N3, a strain developed at GSK for growth in engrafted mice. […] Blood samples were collected on Days 3, 4, 5, 6, and 7 (n = 3 per time point) for parasitemia measurement by flow cytometry. Similarly, blood samples were collected at 0.5, 1, 2, 4, 6, 8, 12, 24, and 48 h after a single administration of 4.7 mg/kg of ACT-451840 to a parallel group of three P. falciparum-infected mice for PK parameters determination. Results are expressed exclusively as antimalarial activity in the P. falciparum murine model.

[4] = tested on: P. falciparum oocysts in Anopheles stephensi; assay: Standard membrane feeding assay, direct mode; format: cell-based, Plasmodium falciparum; details: compound added at the time of mosquito feeding, concentrations up to 1 μM
Procedure: ACT-451840 was tested in the standard membrane feeding assay at TropIQ (Nijmegen, The Netherlands) in two modes, as previously described. In the direct mode, the compound was directly added to a bloodmeal containing mature stage V gametocytes that was fed to Anopheles stephensi mosquitoes. […] Seven days after the bloodmeal, the number of oocysts in the midgut was determined by microscopy for both modes. […] Vehicle control (0.1% DMSO) and positive control (10 μM dihydroartemisinin) were included. Twenty mosquitoes were dissected per sample, and oocyst load was analyzed per mosquito.

P. berghei = details: ± coefficient of variation
Procedure: A single compartment PK model with saturable absorption was obtained using naïve pooling to fit simultaneously the observed blood concentration time data from the PK studies done at a dose of 10, 100, and 300 mg/kg, as described above. Using this model, blood concentration time profiles were predicted for all dosing regimens used in the mouse antimalarial efficacy studies. Cmax, AUC, and time above a threshold concentration were subsequently calculated using non-compartmental analysis. PD modeling was done using an Emax model using Cmax, AUC, or time above a threshold concentration versus survival or antimalarial activity. All modeling and PK analyses were done using Phoenix Winonlin 6.3 (Cetara, Princeton, US).

[5] = cited from earlier work

CC(=O)N1CCN(c2ccc(CN(C(=O)/C=C/c3ccc(C(C)(C)C)cc3)[C@@H](Cc3ccccc3)C(=O)N3CCN(Cc4ccc(C#N)cc4)CC3)cc2)CC1 [ACT-451840]
IC50 fold change (Cam3.II^C580Y parasites; Cam3.II^C580Y versus Cam3.II^rev): 1.1
IC50 (Cam3.II^C580Y parasites; Cam3.II^C580Y, 72 h, mean ± SEM, read-out: IC50): 2.3 ± 0.6 nM
IC50 fold change ([1]; Cam3.II^rev (parental reference line)): 1.0
IC50 ([1]; Cam3.II^rev, 72 h, mean ± SEM, read-out: IC50): 2.1 ± 0.3 nM
IC50 fold change ([2]; V1/S (parental reference line)): 1.0
IC50 ([2]; V1/S, 72 h, mean ± SEM, read-out: IC50): 0.21 ± 0.001 nM
IC50 fold change (V1/S^C580Y parasites; V1/S^C580Y versus V1/S): 0.9
IC50 (V1/S^C580Y parasites; V1/S^C580Y, 72 h, mean ± SEM, read-out: IC50): 0.19 ± 0.015 nM
total AUC in blood corresponding to the ED90 ([3]; P. falciparum mouse model, quadruple-dose regimen […], linearly extrapolated from single dose of 4.7 mg/kg): 227 ng·h/mL
effective dose resulting in 90% antimalarial activity (ED90) ([3]; oral quadruple-dose regimen, once a day): 3.7 mg/kg
activity against P. falciparum oocysts [4]: did not show any activity
Antimalarial activity EX50, X = AUC (P. berghei; Emax model): 8,100 (ng*h/mL) ± 35%
Antimalarial activity EX50, X = Cmax (P. berghei; Emax model): 930 (ng/mL) ± 36%
Antimalarial activity EX50, X = time above threshold (P. berghei; Emax model): 0.14 (h) ± 3,000%
Survival E0, model versus AUC (P. berghei; Emax model): 5.1 (day) ± 17%
Survival E0, model versus Cmax (P. berghei; Emax model): 4 (day) ± 54%
Survival E0, model versus time above threshold (P. berghei; Emax model): 5.9 (day) ± 12%
Survival EX50, X = AUC (P. berghei; Emax model): 170,000 (ng*h/mL) ± 16%
Survival EX50, X = Cmax (P. berghei; Emax model): 15,000 (ng/mL) ± 170%
Survival EX50, X = time above threshold (P. berghei; Emax model): 150 (h) ± 52%
Antimalarial activity Emax, model versus AUC (P. berghei): 110 (%) ± 8.3%
Antimalarial activity Emax, model versus Cmax (P. berghei): 130 (%) ± 11%
Antimalarial activity Emax, model versus time above threshold (P. berghei): 100 (%) ± 38%
Survival Emax, model versus AUC (P. berghei): 35 (day) ± 35%
Survival Emax, model versus Cmax (P. berghei): 62 (day) ± 120%
Survival Emax, model versus time above threshold (P. berghei): 70 (day) ± 71%
exposure (AUC) observed in humans ([5]; single 500 mg dose, fed human subjects): 1,408 ng*h/mL
terminal half-life ([5]; single ascending dose study): 34 h
tolerability ([5]; single ascending dose, first-in-man study in healthy male participants): well tolerated
